This passage reports Papp and logD results from the ASAP Discovery antiviral challenge data (2025).

Values joined by “and” are separate entries in the source; they are usually repeats but may differ in a detail not shown here. Identical values can stand only once.

The conditions of the first series: mdck_mdr1.
Regarding `CNC(=O)c1cc(Cl)ccc1NS(=O)(=O)c1ccc(Oc2ccccc2Cl)cc1`, the Papp (as a rule, a coefficient for how fast a substance crosses the barrier) was 4.91 ×10⁻⁶ cm/s.

For `CC(C)[C@H](Nc1ncnc2[nH]c(-c3cnn(C)c3C#N)cc12)c1ccc2c(c1)S(=O)(=O)CCC2` (single isomer, unassigned), the Papp is 4.33 ×10⁻⁶ cm/s and 1.82 ×10⁻⁶ cm/s.

As to `CC(C)[C@H](Nc1ncnc2[nH]c(-c3cnn(CC(N)=O)c3)cc12)c1ccc2c(c1)S(=O)(=O)CCC2` (racemic), the Papp turned out to be 0.32 ×10⁻⁶ cm/s.

In turn, `CC(C)[C@H](Nc1ncnc2[nH]cc(C(=O)NC3CC3)c12)c1ccc2c(c1)S(=O)(=O)CCC2` (racemic) had a Papp of 2.46 ×10⁻⁶ cm/s.

`CNC(=O)c1c[nH]c2ncnc(N[C@H](c3ccc4c(c3)OCCO4)C(C)C)c12` (racemic): the Papp is 16.2 ×10⁻⁶ cm/s.

With `CC(C)(C)[C@H](Nc1ncnc2[nH]c(-c3cnn(CC(N)=O)c3)cc12)c1ccc2c(n1)OCCO2` (racemic), the Papp amounted to 0.822 ×10⁻⁶ cm/s.

Take `CC(C)[C@H](Nc1ncnc2[nH]c(-c3ccc4nnn(C)c4c3)cc12)c1ccc2c(c1)S(=O)(=O)CCC2` (racemic): the apparent permeability (Papp) was determined as 0.827 ×10⁻⁶ cm/s.

`CC(C)[C@H](Nc1ncnc2[nH]c(-c3cncc(S(C)(=O)=O)c3)cc12)c1ccc2c(c1)S(=O)(=O)CCC2` (racemic) registered a Papp of 0.491 ×10⁻⁶ cm/s.

For `CC(C)(C)[C@H](Nc1ncnc2[nH]c(-c3cnn(CC(N)=O)c3)cc12)c1ccc2c(c1)OCCO2` (single isomer, unassigned), the apparent permeability (Papp) was 0.364 ×10⁻⁶ cm/s and 1.01 ×10⁻⁶ cm/s.

`O=C(/C=C/c1ccccc1)C(=O)N1CCN(CCc2ccccc2)CC1` displayed a Papp of 3 ×10⁻⁶ cm/s.

For `COCCNC(=O)[C@H](Nc1ccc2c(c1)CNC2)c1cc(Cl)cc(C2CC2)c1` (single isomer, unassigned), the Papp came to 1.4 ×10⁻⁶ cm/s.

The compound `CNC(=O)c1cc2c(N[C@H](c3ccc4c(c3)S(=O)(=O)CCC4)C(C)C)ncnc2[nH]1` (racemic) yielded a Papp of 0.46 ×10⁻⁶ cm/s.

With `CC(C)[C@H](Nc1ncnc2[nH]c(-c3cnn(C)c3)cc12)c1ccc2c(c1)S(=O)(=O)CCC2` (single isomer, unassigned), the Papp is 1.18 ×10⁻⁶ cm/s and 1.5 ×10⁻⁶ cm/s.

`O=C(Nc1ccc2c(c1)CNC2)c1cc(F)cc(-c2cn[nH]c2)c1`: the Papp is 1.62 ×10⁻⁶ cm/s.

`NCc1cccc(NC(=O)[C@@H](NC(=O)OCc2ccccc2)c2ccc(OCc3ccccc3)cc2)c1` yielded a Papp of 1.53 ×10⁻⁶ cm/s.

In the case of `CNC(=O)c1c[nH]c2ncnc(N[C@H](c3ccc4c(c3)S(=O)(=O)CCC4)C(C)C)c12` (racemic), the Papp came to 2.23 ×10⁻⁶ cm/s.

Take `CNC(=O)c1cc2c(N[C@H](c3ccc4c(c3)NC(=O)CO4)C(C)C)ncnc2[nH]1` (racemic): the apparent permeability coefficient (Papp) is 0.873 ×10⁻⁶ cm/s.

For `O=C(Nc1ccc2c(c1)CNC2)c1cccc2[nH]c(C(F)(F)F)cc12`, the Papp amounted to 4.1 ×10⁻⁶ cm/s.

In turn, `Cn1ncc(-c2cc3c(N[C@H](c4ccc5c(n4)OCCO5)C(C)(C)C)ncnc3[nH]2)c1C#N` (single isomer, unassigned) displayed a Papp of 14 ×10⁻⁶ cm/s.

`CC(C)(C)[C@H](Nc1ncnc2[nH]c(-c3cnn(CC(N)=O)c3)cc12)c1ccc2c(c1)OCCO2` (racemic) came in with a Papp of 1.66 ×10⁻⁶ cm/s.

For `CN(c1ccc2c(c1)CNC2)[C@H](C(=O)NCC(F)F)c1cc(Cl)cc(C2CC2)c1` (racemic), the Papp amounted to 2.1 ×10⁻⁶ cm/s.

For `CC(C)[C@H](Nc1ncnc2[nH]c(-c3cnn(C)c3C#N)cc12)c1ccc2c(c1)S(=O)(=O)CCC2` (racemic), the apparent permeability (Papp) worked out at 1.97 ×10⁻⁶ cm/s.

Regarding `Cn1ncc(-c2cc3c(N[C@H](c4ccc5c(c4)OCCO5)C(C)(C)C)ncnc3[nH]2)c1C#N` (racemic), the Papp amounted to 2.79 ×10⁻⁶ cm/s.

As to `CC(C)[C@H](Nc1ncnc2[nH]c(-c3ccc4cncn4c3)cc12)c1ccc2c(c1)S(=O)(=O)CCC2` (racemic), the Papp came out at 0.56 ×10⁻⁶ cm/s.

The compound `CC(C)[C@H](Nc1ncnc2[nH]c(-c3cnn(CC(N)=O)c3)cc12)c1ccc2c(c1)OCCO2` (racemic) displayed a Papp of 0.9 ×10⁻⁶ cm/s.

In the case of `COCCNC(=O)c1c[nH]c2ncnc(N[C@H](c3ccc4c(c3)S(=O)(=O)CCC4)C(C)C)c12` (racemic), the Papp came out at 1.62 ×10⁻⁶ cm/s.

On to `CCNC(=O)c1cc2c(N[C@H](c3ccc4c(c3)OCCO4)C(C)C)ncnc2[nH]1` (racemic), for which the Papp came to 2.41 ×10⁻⁶ cm/s.

As for `CC(C)[C@H](Nc1ncnc2[nH]c(-c3cnn(C)c3)cc12)c1ccc2c(c1)S(=O)(=O)CCC2` (racemic), the Papp turned out to be 1.73 ×10⁻⁶ cm/s.

For `CC(C)[C@H](Nc1ncnc2[nH]c(-c3cnn(CC(N)=O)c3)cc12)c1ccc2c(n1)OCCO2` (single isomer, unassigned), the apparent permeability (Papp) was 1.27 ×10⁻⁶ cm/s and 0.47 ×10⁻⁶ cm/s.

Consider `N#Cc1cc2c(cc1NC(=O)c1cc(F)cc3[nH]ncc13)CNC2`, for which the apparent permeability coefficient (Papp) was found to be 3.9 ×10⁻⁶ cm/s.

Consider `CNCc1cc(-c2cc3c(N[C@H](c4ccc5c(c4)S(=O)(=O)NCC5)C(C)C)ncnc3[nH]2)co1` (racemic), for which the apparent permeability (Papp) came to 1.2 ×10⁻⁶ cm/s.

`CC(C)[C@H](Nc1ncnc2[nH]c(-c3cnn(CC(N)=O)c3)cc12)c1ccc2c(c1)S(=O)(=O)CCC2` (single isomer, unassigned): the Papp was 1.98 ×10⁻⁶ cm/s and 0.719 ×10⁻⁶ cm/s.

Conditions in the next series: not given
`CNC(=O)c1cc(Cl)ccc1NS(=O)(=O)c1ccc(Oc2ccccc2Cl)cc1`: the logD – broadly, the decadic logarithm of the distribution of all forms, ionised or not, between an organic phase and buffer at a given pH – is 2.4.

Regarding `CC(C)[C@H](Nc1ncnc2[nH]c(-c3cnn(C)c3C#N)cc12)c1ccc2c(c1)S(=O)(=O)CCC2` (single isomer, unassigned), the logD was 3.3 and 3.7.

`CC(C)[C@H](Nc1ncnc2[nH]c(-c3cnn(CC(N)=O)c3)cc12)c1ccc2c(c1)S(=O)(=O)CCC2` (racemic) gave a logD of 1.9.

Compound `CC(C)[C@H](Nc1ncnc2[nH]cc(C(=O)NC3CC3)c12)c1ccc2c(c1)S(=O)(=O)CCC2` (racemic) gave a logD of 3.1.

`CNC(=O)c1c[nH]c2ncnc(N[C@H](c3ccc4c(c3)OCCO4)C(C)C)c12` (racemic): the logD amounted to 3.6.

Consider `CC(C)(C)[C@H](Nc1ncnc2[nH]c(-c3cnn(CC(N)=O)c3)cc12)c1ccc2c(n1)OCCO2` (racemic), for which the logD was 2.7.

Turning to `CC(C)[C@H](Nc1ncnc2[nH]c(-c3ccc4nnn(C)c4c3)cc12)c1ccc2c(c1)S(=O)(=O)CCC2` (racemic), the logD worked out at 3.4.

The compound `CC(C)[C@H](Nc1ncnc2[nH]c(-c3cncc(S(C)(=O)=O)c3)cc12)c1ccc2c(c1)S(=O)(=O)CCC2` (racemic) came in with a pH-dependent lipophilicity (logD) of 3.1.
